According to article PMC9320964, “Improving the Therapeutic Index of Smp24, a Venom-Derived Antimicrobial Peptide: Increased Activity against Gram-Negative Bacteria” (International Journal of Molecular Sciences, 2022):
In brackets after ≈: the same amount, converted by molar mass. Marks after values point to notes of the source that are not given here. Residues, ends and D or L forms follow the SMILES beside them. No end group written: not given here.

What was measured:
Format in all cases: cell-based
sheep erythrocytes = assay: Haemolysis assay; details: peptides 0–512 µg/mL, triplicate, 10% Triton X-100 positive control
Description: Haemolytic activity was determined on sheep erythrocytes as described by Corzo, 2001 [23]. All samples were tested in triplicate and results given as HC50 values. Peptides were examined in the range of 0–512 µg/mL. 10% Triton X-100 was used as a positive control and deionised water with PBS as a negative control.

Escherichia coli JM109 [1] = assay: MIC by broth microdilution; details: Muller Hinton broth, turbidity A600 nm
Description: (§1) The bacterial isolates used in this study (Escherichia coli JM109, Staphylococcus aureus SH1000 and Pseudomonas aeruginosa H085180216) were obtained from the culture collection held at Sheffield Hallam University.
(§2) All antimicrobial assays were performed by a broth microdilution method in Muller Hinton (MH) broth using a CLARIOstar plate reader (BMG Labtech, Offenburg, Germany) to determine the minimum inhibitory concentration (MIC). The MIC was defined as the lowest concentration of antimicrobial peptide at which growth was inhibited when viewed as turbidity (A600 nm) against a negative broth control. To determine the minimum bactericidal concentration (MBC), 5 µL aliquots were taken from the wells of the MIC plate and spot-plated onto MH agar in triplicate. The plates were incubated for 18–24 h at 37 °C.

[2] = tested on: Pseudomonas aeruginosa H085180216; assay: MIC by broth microdilution; details: Muller Hinton broth, turbidity A600 nm
Description: as §1, §2

[3] = tested on: Staphylococcus aureus SH1000; assay: MIC by broth microdilution; details: Muller Hinton broth, turbidity A600 nm
Description: as §1, §2

Escherichia coli JM109 [4] = assay: MBC by spot-plating from MIC plate; details: 5 µL aliquots of MIC plate spot-plated onto MH agar in triplicate, 18–24 h at 37 °C
Description: as §1, §2

[5] = tested on: Pseudomonas aeruginosa H085180216; assay: MBC by spot-plating from MIC plate; details: 5 µL aliquots of MIC plate spot-plated onto MH agar in triplicate, 18–24 h at 37 °C
Description: as §1, §2

[6] = tested on: Staphylococcus aureus SH1000; assay: MBC by spot-plating from MIC plate; details: 5 µL aliquots of MIC plate spot-plated onto MH agar in triplicate, 18–24 h at 37 °C
Description: as §1, §2

HEK293 cells = assay: LDH cytotoxicity assay; details: LDH release, human kidney HEK293 cells, 0–512 µg/mL, 24 h, 37 °C, triplicate on 2 separate occasions
Description: (§3) An LDH assay (Fisher, Loughborough, UK) was used to determine the cytotoxic potential of the peptides against liver (HepG2) and kidney (HEK293) cells. Cells were grown in accordance with the manufacturer’s protocols. Cells were grown in DMEM containing 1 g/L D-glucose, 10% foetal bovine serum and 1% penicillin-streptomycin. Cells were grown to 80% confluence (37 °C, 5% CO2), washed twice with PBS, trypsinised, re-suspended and seeded at a density of […] in a 96-well plate. Cells were incubated for 24 h, and peptides or lipopeptide antibiotics (0–512 µg/mL) were added and incubated at 37 °C, 5% CO2 for 24 h. LDH release was determined via the manufacturer’s methods. All assays were performed in triplicate on 2 separate occasions. Triton X-100 (10%) was used as a positive control and deionised water as a negative control. Absorbance was read at 490 nm and 680 nm on a plate reader (CLARIOstar). LD50 values were calculated by plotting a dose–response curve and determining the dosage that would cause 50% cell death.

HepG2 cells = assay: LDH cytotoxicity assay; details: LDH release, human liver HepG2 cells, 0–512 µg/mL, 24 h, 37 °C, triplicate on 2 separate occasions
Description: as §3

Row | Compound | HC50 (sheep erythrocytes; listed as K7F) [µg/mL] | MIC E. coli (Escherichia coli JM109 [1]) [µg/mL] | MIC P. aeruginosa [2] [µg/mL] | MIC S. aureus [3] [µg/mL] | MBC E. coli (Escherichia coli JM109 [4]) [µg/mL] | MBC P. aeruginosa [5] [µg/mL] | MBC S. aureus [6] [µg/mL] | HC50 (sheep erythrocytes) | LD50 HEK293 (HEK293 cells) [µg/mL] | LD50 HepG2 (HepG2 cells) | HC50 (sheep erythrocytes; listed as daptomycin) [µg/mL] | HC50 (sheep erythrocytes; listed as polymyxin B) [µg/mL] | HC50 (sheep erythrocytes; listed as F4A) [µg/mL] | HC50 (sheep erythrocytes; listed as W2A) [µg/mL]
1 | IWSFLIFAATKLLPSLFGGGKKDS [Smp24 K7F] | 442 | – | – | – | – | – | – | – | – | – | – | – | – | –
2 | IWSFLIKAATKLLPSLFGGGKKFS [Smp24 D23F] | – | 32 | 64 | 32 | 32 | 64 | 32 | 33 * μg/mL | 38 | >512 * μg/mL | – | – | – | –
3 | CCCCCCCCCC(=O)N[C@@H](Cc1c[nH]c2ccccc12)C(=O)N[C@H](CC(N)=O)C(=O)N[C@@H](CC(=O)O)C(=O)N[C@@H]1C(=O)NCC(=O)N[C@@H](CCCN)C(=O)N[C@@H](CC(=O)O)C(=O)N[C@H](C)C(=O)N[C@@H](CC(=O)O)C(=O)NCC(=O)N[C@H](CO)C(=O)N[C@@H]([C@H](C)CC(=O)O)C(=O)N[C@@H](CC(=O)c2ccccc2N)C(=O)O[C@@H]1C [Daptomycin] | – | >512 | >512 | 4 (≈ 2.47 µM) | >512 | >512 | 8 (≈ 4.94 µM) | >512 µg/mL | >512 | >512 µg/mL | ≥ 512 | – | – | –
4 | CC[C@H](C)CCCCC(=O)N[C@@H](CCN)C(=O)N[C@H](C(=O)N[C@@H](CCN)C(=O)N[C@H]1CCNC(=O)[C@H]([C@@H](C)O)NC(=O)[C@H](CCN)NC(=O)[C@H](CCN)NC(=O)[C@H](CC(C)C)NC(=O)[C@@H](Cc2ccccc2)NC(=O)[C@H](CCN)NC1=O)[C@@H](C)O [Polymyxin B] (HELM PEPTIDE1{[CC[C@H](C)CCCCC(=O)[*:2]].[Dab].T.[Dab].[Dab].[Dab].[dF].L.[Dab].[Dab].T}$PEPTIDE1,PEPTIDE1,5:R3-11:R2$$$V2.0; N-terminus assumed; bridges inferred) | – | 2 (≈ 1.66 µM) | 2 (≈ 1.66 µM) | 32 (≈ 26.6 µM) | 4 (≈ 3.32 µM) | 8 (≈ 6.65 µM) | 64 (≈ 53.2 µM) | >512 µg/mL | 351 | >512 µg/mL | – | ≥ 512 | – | –
5 | IWSALIKAATKLLPSLFGGGKKDS [Smp24 F4A] | – | – | – | – | – | – | – | – | – | – | – | – | 423 | –
6 | IASFLIKAATKLLPSLFGGGKKDS [Smp24 W2A] | – | – | – | – | – | – | – | – | – | – | – | – | – | > 512
